Measurements published in ChEMBL document CHEMBL3872248, “Discovery and initial optimization of alkoxyanthranilic acid derivatives as inhibitors of HCV NS5B polymerase” (Bioorg Med Chem Lett, 2017).
Activity calls are given as the source filed them. No cut-off for these calls is given here.

System: not listed separately
Test: Inhibition of wild-type HCV genotype 1b Con1 C-terminal truncated NS5B RNA dependent RNA polymerase expressed in Escherichia coli BL21(DE3) Star assessed as inhibition of [alpha-32P]UTP incorporation using polyrA/T12 as template/primer measured after 60 mins by TopCount NXT method
Parameters: species or system Hepatitis C virus (isolate Con1)
Settings: not given

Structure (SMILES) | IC50 [µM]
CS(=O)(=O)NC(=O)c1cccc(OCc2ccc(Cl)cc2)c1NC(=O)c1ccccc1 | 24
O=C(O)CCCOc1ccccc1C(=O)Nc1c(OCc2ccc(Cl)cc2)cccc1C(=O)O | 2.1
O=C(Nc1c(OCc2ccc(Cl)cc2)cccc1-c1nnn[nH]1)c1ccccc1 | 25
O=C(Nc1c(OCc2ccc(Cl)cc2)cccc1C(=O)O)c1ccccc1 | 8.4
O=C(O)c1ccc(OCc2ccc(Cl)cc2)c(NC(=O)c2ccccc2)c1 | 8.3
O=C(NCCO)c1ccc(OCc2ccc(Cl)cc2)c(NC(=O)c2ccccc2)c1 | > 50
O=C(O)CNC(=O)c1ccc(OCc2ccc(Cl)cc2)c(NC(=O)c2ccccc2)c1 | 6.2
CS(=O)(=O)NC(=O)c1ccc(OCc2ccc(Cl)cc2)c(NC(=O)c2ccccc2)c1 | 15

The remaining lines, values ahead:

IC50 [µM] | Structure (SMILES)
4.4 | O=C(O)COc1cccc2c1CN(c1c(OCc3ccc(Cl)cc3)cccc1C(=O)O)C2=O
> 50 | CN(C(=O)c1ccccc1)c1c(OCc2ccc(Cl)cc2)cccc1C(=O)O
8.7 | O=C(O)c1cccc(OCc2ccc(Cl)cc2)c1N1Cc2ccccc2C1=O
6.6 | O=C(O)c1cccc(OCc2ccc(Cl)cc2)c1N1Cc2c(O)cccc2C1=O
1.2 | O=C(O)COc1ccccc1C(=O)Nc1c(OCc2ccc(Cl)cc2)cccc1C(=O)O
10 | O=C(O)Cc1cccc(OCc2ccc(Cl)cc2)c1NC(=O)c1ccccc1
11 | O=C(O)CCCOc1cccc2c1CN(c1c(OCc3ccc(Cl)cc3)cccc1C(=O)O)C2=O
0.88 | O=C(O)CNC(=O)c1ccc(OCc2ccc(Cl)cc2)c(N2Cc3ccccc3C2=O)c1
> 50 | O=C(Nc1c(OCc2ccc(Cl)cc2)cccc1C(=O)NCCO)c1ccccc1
32 | O=C(O)c1cccc(OCc2ccc(Cl)cc2)c1N1CCCc2ccccc2C1=O
1.7 | O=C(O)/C=C/c1cccc2c1CN(c1c(OCc3ccc(Cl)cc3)cccc1C(=O)O)C2=O
4.6 | O=C(Nc1c(OCc2ccc(Cl)cc2)cccc1C(=O)O)c1ccccc1O

Molecular target: RNA-directed RNA polymerase (Hepacivirus hominis, UniProt O39930, C316Y)
Sequence (O39930 entry or part of it C316Y): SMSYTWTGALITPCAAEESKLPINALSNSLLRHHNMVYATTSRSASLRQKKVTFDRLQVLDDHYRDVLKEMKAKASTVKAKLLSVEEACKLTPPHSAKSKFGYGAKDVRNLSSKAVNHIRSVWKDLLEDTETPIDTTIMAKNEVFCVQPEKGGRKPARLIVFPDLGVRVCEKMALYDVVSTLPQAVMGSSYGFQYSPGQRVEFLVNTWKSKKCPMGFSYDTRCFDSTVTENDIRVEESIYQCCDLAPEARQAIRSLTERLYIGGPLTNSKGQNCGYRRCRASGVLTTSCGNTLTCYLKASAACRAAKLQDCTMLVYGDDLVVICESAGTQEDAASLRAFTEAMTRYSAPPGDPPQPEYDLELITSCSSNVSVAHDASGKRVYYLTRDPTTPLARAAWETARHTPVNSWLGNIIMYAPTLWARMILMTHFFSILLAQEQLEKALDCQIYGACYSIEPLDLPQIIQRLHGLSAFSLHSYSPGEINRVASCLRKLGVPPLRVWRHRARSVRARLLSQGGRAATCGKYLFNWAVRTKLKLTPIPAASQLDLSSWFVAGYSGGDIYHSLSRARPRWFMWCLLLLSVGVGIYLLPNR
Test: Inhibition of wild-type HCV genotype 1b Con1 NS5B RNA dependent RNA polymerase C316Y mutant expressed in Escherichia coli BL21(DE3) Star assessed as inhibition of [alpha-32P]UTP incorporation using polyrA/T12 as template/primer measured after 60 mins by TopCount NXT method
Parameters: species or system Hepatitis C virus (isolate Con1)
Settings: not given

Structure (SMILES) | IC50 [µM]
O=C(Nc1c(OCc2ccc(Cl)cc2)cccc1C(=O)O)c1ccccc1 | > 50

System: Hepatitis C virus
Test: Antiviral activity against HCV genotype 1b Con1 expressing NS3 protease infected in human Huh-7 cells assessed as reduction in viral RNA replication measured after 3 days by EnduRen-based luciferase reporter gene assay
Format: functional, cell-based, Hepacivirus hominis
Settings: genotype 1b Con1, Huh-7, 72 h

EC50 [µM] | Structure (SMILES)
> 100 | O=C(O)CNC(=O)c1ccc(OCc2ccc(Cl)cc2)c(N2Cc3ccccc3C2=O)c1

System: Hepatitis C virus
Test: Antiviral activity against HCV genotype 1b Con1 expressing C-terminal truncated NS5B assessed as inhibition of viral RNA production at 50 uM by high throughput screening method
Format: functional
Settings: Hepacivirus hominis

Structure (SMILES) | inhibition
O=C(Nc1c(OCc2ccc(Cl)cc2)cccc1C(=O)O)c1ccccc1 | Active
